Experimental data from US7772430B2, “Derivatives of arylsulfonamido-substituted hydroxamic acid as matrix metalloproteinases inhibitors” (Protera S.R.L., priority 2004, dated 2010).

Legend:
Solubility in water = type: physicochemical; details: stated in words only
[1] = target: T1, Catalytic domain of MMP-12 (Homo sapiens, UniProt P39900); test: In vitro inhibition test, fluorogenic peptide substrate (Knight et al.); type: biochemical; details: 298 K, pH 7, 1% DMSO; stated in words only
T1 construct: Catalytic domain of MMP-12 was cloned, expressed and purified; made in house
Procedure: The compounds of the invention, prepared as above described, were tested in vitro according to the method reported by Knight et al. in FEBS Lett 1992, 296 (3):263.
Catalytic domain of MMP-12 was cloned, expressed and purified according to the procedure reported in Banci et al. Journal of Molecular Catalysis A: Chemical, 2003, Vol. 204-205, pp. 401-408). Preparation of catalytic domain of MMP-1 was performed as follows: proMMP-1 cDNA was cloned into the pET21 (Novagen) expression vector. The recombinant vector was transformed into Escherichia Coli BL21 cells. The bacteria were grown in 2 XYt media and incubated at 37° C. When the cells reached the exponential growth phase, the expression of the protein was induced by adding 0.5 mM of IPTG and the incubation was continued further for four hours. […]
The protein was maintained in presence of inhibitor for 5 min before the substrate was added. Subsequently, after addition of peptidic substrate, the increase of fluorescence intensity was measured vs. time (excitation 328 nm, emission 393 nm) using a Varian/Eclipse fluorimeter.
Matrix metalloproteinases cleave peptidic bond glycine-leucine separating coumarinic group from 2,4-dinitrophenol and so causing a high increase of fluorescence intensity under the conditions indicated above. […]

T1 sequence (P39900 106-263 limits assumed): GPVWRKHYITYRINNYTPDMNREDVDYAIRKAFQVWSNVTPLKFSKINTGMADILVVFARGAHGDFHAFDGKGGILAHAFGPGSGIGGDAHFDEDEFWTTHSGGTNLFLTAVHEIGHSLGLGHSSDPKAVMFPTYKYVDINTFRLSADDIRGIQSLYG

COc1ccc(S(=O)(=O)NC(CO)C(=O)NO)cc1 (centres unmarked) [Example 7, 3,N-dihydroxy-2-[(4-methoxy-benzenesulfonyl)amino]-propionamide]
solubility in water (Solubility in water): good solubility
ability to inhibit MMP-12 (from IC50 data) [1]: do not have the inhibition activity and selectivity of present compounds of formula (I)
